Data reported in patent publication US5932709A (University of Michigan, priority 1997, dated 1999).
In brackets after ≈: the same amount, converted by molar mass. Entries after “also recorded” stand apart in the source; their conditions may differ.

How the values were obtained:
[1] = tested on: P388 murine leukemia cells; experiment: MTT growth inhibition, P388; format: cell-based; settings: Mus musculus, 72 h, 3 days, read-out: Growth Inhibitory Activity IC50
Method: (§1) Camptothecin was used as a control to test the anti-cancer efficacy of the novel camptothecin analogs of the present invention.
(§2) Murine B16 melanoma cell line was grown in RPMI 1640 medium supplemented with 10% heat-inactivated fetal bovine serum, 2 mM L-glutamine, 50 units/mL penicillin, 50 μg/mL streptomycin, 25 μg/mL gentamicin, 0.75% sodium bicarbonate 10 mM HEPES buffer (pH 7.4), and 0.06 mg/mL AntiPPLO. Murine P388 leukemic cell line and human HT-29 colon adenocarcinoma line were maintained in RPMI 1640 medium supplemented with 10% heat-inactivated fetal bovine serum. […] MCF-7M human breast adenocarcinoma was maintained in IMEM supplemented with 5% non heat-inactivated fetal bovine serum and 1 nM insulin.
(§3) [See "Rapid Colorimetric Assay For Cellular Growth And Survival: Application To Proliferation And Cytotoxicity Assays," J. Immun. Meth. 65:55 (1983)]. The assay utilizes a tetrazolium salt to quantitatively measure mammalian cell survival and proliferation by colorimetric methods. In particular, MTT, a pale yellow compound with minimal absorbance, is incubated with cancerous cells in addition to (or in the absence of) a particular camptothecin analog. Living cells with active mitochondrial enzymes metabolize the MTT into a dark blue/purple formazan product with high absorbance. The exact procedure used to test the camptothecin analogs of the present invention is described below.
(§4) Exponentially growing cells (1-2×10^3 cells, unless specified otherwise) in 0.1 mL medium were seeded on day 0 in a 96-well microtiter plate. On day 1, 0.1 mL aliquots of medium containing graded concentrations of test analogs were added to the cell plates. After incubation at 37° C. in a humidified incubator for 3 days (P388, P388/CPT, B16) or 6 days (HT-29, MCF-7M), the plates were centrifuged briefly and 100 μL of the growth medium was removed. Cell cultures were incubated with 50 μL of 3-(4,5-dimethylthiazol-2-yl)-2,5-diphenyl-tetrazolium bromide [MTT, 1 mg/mL in Dulbecco's phosphate buffered saline (PBS)] for 4 hr at 37° C. The resulting purple formazan precipitate was solubilized with 200 μL of 0.04 N HCl in isopropyl alcohol. Absorbance was monitored in a BioRad Model 3550 Microplate Reader at a test wavelength of 570 nm and a reference wavelength of 630 nm. The absorbance is transferred to a PC 486 computer. The IC50 values were determined by a computer program (EZ-ED50) that fits all of the data to the following four-parameter logistic equation:
(§5) Y=(Amax -Amin)/(1+[X/IC^50 ])^n +Amin
(§6) where Amax is the absorbance of control cells, Amin is the absorbance of cells in the presence of highest agent concentration, IC^50 is the concentration of agent that inhibits the cell growth by 50% of control cells (based on the absorbance) and n is the slope of the curve.

murine P388 leukemia = experiment: Murine P388 leukemia model in vivo; set-up: species or system mouse (B6D2F1); settings: for Survivors: 30-day; for toxic deaths: at the high dose; for efficacy vs P388 leukemia: i.p. five day schedule; for 30-day survivors (cures): 100 mg/kg
Method: (§7) For the B16 melanoma model, the following procedure was used. B6D2F1 mice receive i.p. inocula of B16 murine melanoma brei prepared from B16 tumors growing s.c. in mice (day 0). […] If dosing information for agents is not available, the maximum tolerated dose (MTD) is determined in initial dose finding experiments in non-tumored mice.
(§8) The mean survival times of all groups are calculated, and results are expressed as mean survival of treated mice/mean survival of control mice (T/C)×100%. A T/C value of 150 means that the mice in the treated group lived 50% longer than those of the control group; this is sometimes referred to as the increase in life span or ILS value.
For the P388 leukemia model, the procedure followed is exactly the same as the aforementioned B16 model. The tumor inoculum is prepared by removing ascited fluid containing P388 cells from tumored B6D2F1 mice, centrifuging the cells, and then resuspending the leukemia cells in saline. Mice receive 1×10^6 P388 cells i.p. on day 0.

[2] = tested on: B16 murine melanoma cells; experiment: MTT growth inhibition, B16; format: cell-based; settings: Mus musculus, 72 h, 3 days, read-out: Growth Inhibitory Activity IC50
Method: as §1, §2, §3, §4, §5, §6

[3] = Water solubility in phosphate buffered saline (spectrophotometric assay); format: physicochemical; settings: for solubility at 24 h: aqueous buffer, water solubility, PBS pH 7.5, room temperature
Method: Approximately 5 mg of test compound was suspended in 1 mL of PBS in a 1.5 mL cryovial. The suspensions were mixed continuously on a Thermolyne vari-mix at room temperature for 24 hr. The suspensions were then centrifuged at 14000×g for 2 minutes to separate the undissolved materials. The supernatant fluids were diluted appropriately with PBS and the ultraviolet spectrums were recorded on a Beckman 640 DU spectrophotometer. For comparison, a standard stock (2 mg/mL in DMSO) solution was prepared for each analog. The ultraviolet spectrum of a 20 of 40 μg/mL standard working solution was measured. The water solubility of each analog was calculated based on the following formula:
Cunknown =Cstandard ×(Aunknown
where Cunknown is the concentration of the unknown solution to be determined; Cstandard is the concentration of the standard working solution (either 20 or 40 μg/mL); Astandard is the absorbance at 350 nm of the standard working solution; DDilution is the appropriate dilution factor used so that the absorbance of the unknown working solution is within the dynamic range of the UV spectrophotometer (less than 2 absorbance units).

murine B16 melanoma = experiment: Murine B16 melanoma model in vivo; set-up: species or system mouse (B6D2F1); settings: for Survivors: 60-day
Method: 1) Murine B16 Melanoma Model
as §7, §8
Mice that survive for 60 days are considered long-term survivors, or cures, in the B16 model. The universally accepted cut-off for activity in this model, which has been for years by the National Cancer Institute, is T/C=125. Conventional use of B16 over the years has set the following levels of activity: T/C<125, no activity, T/C=125-150, weak activity; T/C=150-200, modest activity; T/C=200-300, high activity; T/C>300, with long term survivors; excellent, curative activity.

[4] = lower dose of 100 mg/kg (so in the source)

## CC[C@@]1(O)C(=O)OCc2c1cc1n(c2=O)Cc2c-1nc1ccccc1c2CO[C@@H]1C=C[C@H](OC(C)=O)[C@@H](COC(C)=O)O1 [HAR4, 7-[4,6-di-O-acetyl-2,3-dideoxy-α-D-erythro-hex-2-enopyranosyl]oxymethylcamptothecin]
[1]
  IC50: 0.03 µg/mL (≈ 0.0508 µM)
Murine P388 leukemia; 10 mg/kg
  cures: two
Murine P388 leukemia; 10 mg/kg i.p. daily×5
  T/C (mean survival treated/control): 201%
  Tox Deaths: 0/10
  ΔWeight (%): -0.6%
  Survivors: 2/10
Murine P388 leukemia; 20 mg/kg
  cures: two
Murine P388 leukemia; 20 mg/kg i.p. daily×5
  T/C (mean survival treated/control): 206%
  Tox Deaths: 0/10
  ΔWeight (%): -14.0%
  Survivors: 2/10
Murine P388 leukemia
  toxic deaths: no toxic deaths occurred
Murine P388 leukemia; at the high dose (MTD)
  weight loss: 12%-16
Murine P388 leukemia; in words
  efficacy vs P388 leukemia: high, curative efficacy; also recorded: excellent activity vs. P388
[2]
  IC50: 0.026 µg/mL (≈ 0.044 µM)
[3]
  solubility at 24 h: 155 µg/mL (≈ 262 µM)
Murine B16 melanoma; 10 mg/kg
  cures: one
Murine B16 melanoma; 10 mg/kg i.p. daily×5
  T/C (mean survival treated/control): 189%
  Tox Deaths: 0/10
  ΔWeight (%): +6.6%
  Survivors: 1/10
Murine B16 melanoma; 20 mg/kg
  cures: one
Murine B16 melanoma; 20 mg/kg i.p. daily×5
  T/C (mean survival treated/control): 212%
  Tox Deaths: 1/10
  ΔWeight (%): -15.6%
  Survivors: 1/10
Murine B16 melanoma; high dose group
  toxic deaths: one

## CC[C@@]1(O)C(=O)OCc2c1cc1n(c2=O)Cc2c-1nc1ccccc1c2CO[C@@H]1C=C[C@H](O[C@H]2O[C@H](COC(C)=O)[C@@H](OC(C)=O)[C@H](OC(C)=O)[C@H]2OC(C)=O)[C@@H](COC(C)=O)O1 [HAR5, 7-[6-O-acetyl-4-O-(2,3,4,6-tetra-O-acetyl-α-D-glucopyranosyl)-2,3-dideoxy-α-D-erythro-hex-2-enopyranosyl]oxymethylcamptothecin]
[1]
  IC50: 0.362 µg/mL (≈ 0.412 µM)
Murine P388 leukemia
  30-day survivors (cures): one
Murine P388 leukemia; 100 mg/kg i.p. daily×5
  T/C (mean survival treated/control): 141%
  Tox Deaths: 0/10
  ΔWeight (%): +0.7%
  Survivors: 1/10
Murine P388 leukemia; 200 mg/kg i.p. daily×5
  T/C (mean survival treated/control): 161%
  Tox Deaths: 0/10
  ΔWeight (%): -2.0%
  Survivors: 0/10
Murine P388 leukemia; at its solubility-limiting dose, in words
  weight loss: only insignificant weight loss
Murine P388 leukemia; in words
  efficacy vs P388 leukemia: less efficacious compared to the other three compounds
[2]
  IC50: 0.43 µg/mL (≈ 0.489 µM)
[3]
  solubility at 24 h: 35 µg/mL (≈ 39.8 µM)
Murine B16 melanoma; 100 mg/kg
  60-day survivors (cures): three
Murine B16 melanoma; 100 mg/kg i.p. daily×5
  T/C (mean survival treated/control): 239%
  Tox Deaths: 0/10
  ΔWeight (%): +9.0%
  Survivors: 3/10
Murine B16 melanoma; 200 mg/kg
  60-day survivors (cures): three
Murine B16 melanoma; 200 mg/kg i.p. daily×5
  T/C (mean survival treated/control): 232%
  Tox Deaths: 0/10
  ΔWeight (%): +5.9%
  Survivors: 3/10
Murine B16 melanoma; among the four analogs, in words
  efficacy vs. B16: highest efficacy vs. B16

## CC[C@@]1(O)C(=O)OCc2c1cc1n(c2=O)Cc2c-1nc1ccccc1c2CO[C@@H]1C=C[C@H](O[C@H]2O[C@H](CO)[C@@H](O)[C@H](O)[C@H]2O)[C@@H](CO)O1 [HAR6, 7-[4-O-(α-D-glucopyranosyl)-2,3-dideoxy-α-D-erythro-hex-2-enopyranosyl]-oxymethylcamptothecin]
[1]
  IC50: 1.68 µg/mL (≈ 2.51 µM)
Murine P388 leukemia; 50 mg/kg i.p. daily×5
  T/C (mean survival treated/control): 225%
  Tox Deaths: 0/10
  ΔWeight (%): -3.5%
  Survivors: 1/10
Murine P388 leukemia
  30-day survivors (cures): three
  toxic deaths: no toxic deaths occurred
Murine P388 leukemia; 100 mg/kg i.p. daily×5
  T/C (mean survival treated/control): 320%
  Tox Deaths: 0/10
  ΔWeight (%): -12.2%
  Survivors: 3/10
Murine P388 leukemia; at the high dose (MTD)
  weight loss: 12%-16
Murine P388 leukemia; in words
  efficacy vs P388 leukemia: high, curative efficacy
Murine P388 leukemia; [4]
  T/C: 225%
  cures: one
[2]
  IC50: 2.43 µg/mL (≈ 3.63 µM)
[3]
  solubility at 24 h: 1620 µg/mL (≈ 2420 µM)
[3]; compared to camptothecin
  water solubility improvement: 80 fold
Murine B16 melanoma; 100 mg/kg
  60-day survivors (cures): no cures
  drug-related deaths: one
Murine B16 melanoma; 100 mg/kg i.p. daily×5
  T/C (mean survival treated/control): 184%
  Tox Deaths: 1/10
  ΔWeight (%): -13.8%
  Survivors: 0/10
Murine B16 melanoma; 100 mg/kg i.p. five day schedule
  weight loss: approximately 14%
Murine B16 melanoma; 150 mg/kg i.p. daily×5
  T/C (mean survival treated/control): 185%
  Tox Deaths: 7/10
  ΔWeight (%): -27.2%
  Survivors: 0/10
